pIC50: −log10 of the molar value.
Target: T1, Syk kinase (Homo sapiens, UniProt P43405)
T1 construct: purchased
Test: Syk kinase inhibition, Caliper LabChip off-chip mobility-shift kinase assay
Type: biochemical
Settings: Caliper LabChip assay; read-out: Syk Enzyme IC50
Summary of the method: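 Purified Syk pre-incubated 15 min with compound in 100 mM HEPES pH 7.5, 1 mM DTT, 10 mM MgCl2 or MnCl2, 0.002% Brij-35, then 1.5 μM fluorescein peptide and ATP at apparent KM added; 1–1.5 h at room temperature, 4% DMSO, EDTA stop. Microfluidic mobility-shift product/substrate conversion gave % inhibition; IC50 from 12-point series (10–0.00003 μM) by 4-parameter fit.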

| Compound | pIC50 |
| --- | --- |
| CC(C)(C)Nc1nc(Nc2cc(C(C)(C)O)ncn2)cc2ccn(C(CO)CO)c(=O)c12 [compound 741] | 7.65 |
| CC(C)(C)CNc1nc(-c2cnc(N)nc2)cc2ccn(CCO)c(=O)c12 [compound 911] | 7.03 |
| CCn1ccc2cc(Nc3cnccn3)nc(NC(C)(C)CO)c2c1=O [compound 895] | 7.57 |
| CC(C)(C)Nc1nc(Nc2cc(C(C)(C)N)ccn2)cc2ccn(CCO)c(=O)c12 [compound 711, 6-(4-(2-aminopropan-2-yl)pyridin-2-ylamino)-8-(tert-butylamino)-2-(2-hydroxyethyl)-2,7-naphthyridin-1(2H)-one] | 6.71 |
| CC(C)(C)Nc1nc(Nc2cc(C3(O)CCC3)ccn2)cc2ccn(CCO)c(=O)c12 [compound 870] | 7.12 |
| COCC(O)Cn1ccc2cc(Nc3cnccn3)nc(NC(C)(C)C)c2c1=O (stereo not shown) [compound 677] | 7.92 |
| CCn1ccc2cc(Nc3cc(C)ccn3)nc(N[C@H]3CC[C@@H](CO)C3)c2c1=O [compound 792] | 7.48 |
| CCn1ccc2cc(Nc3cc(C)ccn3)nc(NC3CCC(C)(O)CC3)c2c1=O (stereo not shown) [compound 951] | 7.04 |
| CC(O)c1ccnc(Nc2cc3ccn(CC(N)=O)c(=O)c3c(NC(C)(C)C)n2)c1 (stereo not shown) [compound 725] | 7.51 |
| O=c1[nH]ccc2cc(Nc3cnccn3)nc(N[C@H]3CC[C@@H](O)CC3)c12 [compound 981] | 7.82 |
| CC1(Nc2nc(-c3cnc(N)nc3)cc3ccn(CC4CCOCC4)c(=O)c23)CCC1 [compound 930] | 7.09 |
| CC(C)(C)Nc1nc(Nc2cnccn2)cc2ccn(C3CS(=O)(=O)C3)c(=O)c12 [compound 1015] | 6.86 |
| CC(C)(C)Nc1nc(Nc2cc(C3=CCCCO3)ncn2)cc2ccn(CCO)c(=O)c12 [compound 624] | 6.23 |
| CC1(O)CN(c2cc(Nc3cc4ccn(CCO)c(=O)c4c(NC(C)(C)C)n3)ncn2)C1 [compound 630, 8-(tert-butylamino)-6-(6-(3-hydroxy-3-methylazetidin-1-yl)pyrimidin-4-ylamino)-2-(2-hydroxyethyl)-2,7-naphthyridin-1(2H)-one] | 6.69 |
| CC(C)(C)Nc1nc(Nc2ccncn2)cc2ccn(CCO)c(=O)c12 [compound 736] | 7.05 |
| CC(C)(C)Nc1nc(-c2cnc(N)nc2)cc2ccn(CC(O)C(F)(F)F)c(=O)c12 (stereo not shown) [compound 926] | 7.30 |
| CC(=O)c1cc(Nc2cc3ccn(CCO)c(=O)c3c(NC(C)(C)C)n2)ncn1 [compound 633, 6-(6-acetylpyrimidin-4-ylamino)-8-(tert-butylamino)-2-(2-hydroxyethyl)-2,7-naphthyridin-1(2H)-one] | 6.56 |
| CCn1ccc2cc(-c3cnc(N)nc3)nc(N[C@@H]3CCC(F)C3)c2c1=O (stereo partly shown) [compound 749] | 7.35 |
| CCn1ccc2cc(Nc3cc(C)ccn3)nc(Nc3ccc(C(=O)N4CCC(O)CC4)cc3)c2c1=O [compound 835] | 6.88 |
| CC(C)(C)Nc1nc(Nc2nccs2)cc2ccn(CCO)c(=O)c12 [compound 692] | 5.99 |
| CCn1ccc2cc(Nc3cc(C(C)(C)O)ccn3)nc(NC3(C)CCC3)c2c1=O [compound 702] | 7.07 |
| CC(C)(C)Nc1nc(Nc2c[n+]([O-])ccn2)cc2ccn(C[C@@H](O)CO)c(=O)c12 [compound 675] | 8.22 |
| CC(C)(C)Nc1nc(Nc2cc(N3CCCC(CO)C3)ccn2)cc2ccn(CCO)c(=O)c12 (stereo not shown) [compound 845] | 6.12 |
| CC(C)n1ccc2cc(-c3cnc(N)nc3)nc(N[C@H]3CC[C@@H](O)CC3)c2c1=O [compound 1027] | 7.49 |
| O=c1c2c(NC3CC3)nc(Nc3cnccn3)cc2ccn1CCO [compound 818] | 7.57 |
| CC(C)(C)Nc1nc(Nc2cc(-n3cc(C(=O)O)cn3)ncn2)cc2ccn(CCO)c(=O)c12 [compound 888] | 7.62 |
| COCc1ccnc(Nc2cc3ccn(CCO)c(=O)c3c(NC(C)(C)C)n2)c1 [compound 709] | 7.96 |

Same assay, conditions: read-out: Syk Enzyme IC50

| Compound | pIC50 |
| --- | --- |
| C[C@@H](O)CNc1nc(Nc2cnccn2)cc2ccn(C)c(=O)c12 [compound 470] | 7.09 |
| CCn1ccc2cc(Nc3cc(C)ccn3)nc(N[C@H]3CCOC3)c2c1=O [compound 361] | 7.52 |
| Nc1ncc(-c2cc3ccn(CC4CC4(F)F)c(=O)c3c(Nc3ccc(N4CCOCC4)cc3)n2)cn1 (stereo not shown) [compound 4] | 6.31 |
| C[C@@H]1CN(c2ccc(Nc3nc(CCC(=O)O)cc4cc[nH]c(=O)c34)cn2)CCO1 [compound 243] | 6.51 |
| CCNC(=O)CN1CCC(c2ccc(Nc3nc(-c4cncc(OC)n4)cc4cc[nH]c(=O)c34)cc2C)CC1 [compound 179] | 7.10 |
| Cc1ccnc(Nc2cc3cc[nH]c(=O)c3c(N[C@H]3CC[C@@H](O)CC3)n2)c1 [compound 303] | 7.77 |
| Cn1ccc2cc(Nc3cnccn3)nc(Nc3cccc(S(C)(=O)=O)c3)c2c1=O [compound 390] | 6.12 |
| COc1ncc(-c2cc3c(F)c[nH]c(=O)c3c(Nc3ccc(N4CCOCC4)cc3)n2)cn1 [compound 430] | 6.92 |
| O=c1[nH]ccc2cc(-c3cncnc3)nc(Nc3ccc([C@H]4CC[C@@H](N5CCOCC5)CC4)cc3)c12 [compound 10] | 6.58 |
| Cc1ccnc(Nc2cc3cc[nH]c(=O)c3c(N3CC[C@@H](CO)C3)n2)c1 [compound 399] | 6.00 |
| CCN1CCC(c2ccc(Nc3nc(-c4cncc(OC)n4)cc4cc[nH]c(=O)c34)cc2C)CC1 [compound 137] | 8.00 |
| Cc1cc(Nc2nc(C(C)C)cc3cc[nH]c(=O)c23)ccc1C1CCN(C2CC2)CC1 [compound 231] | 6.06 |
| Cc1ccc(-c2cc3cc[nH]c(=O)c3c(Nc3cnn(CCN4CCOCC4)c3)n2)cn1 [compound 126] | 7.00 |
| O=c1[nH]ccc2cc(-c3cnccn3)nc(Nc3ccc4c(c3)C3CNCC4C3)c12 (stereo not shown) [compound 98] | 5.82 |
| COCCNC(=O)C(C)N1CCC(c2ccc(Nc3nc(-c4cncc(OC)n4)cc4cc[nH]c(=O)c34)cc2C)CC1 (stereo not shown) [compound 123] | 6.82 |
| COc1cncc(-c2cc3cc[nH]c(=O)c3c(Nc3ccc(C4CCN(C(=O)C5(N)CC5)CC4)c(C)c3)n2)n1 [compound 60] | 6.81 |
| COc1cncc(-c2cc3cc[nH]c(=O)c3c(Nc3ccc(C4CCC(N(C)C)CC4)cc3)n2)n1 (stereo not shown) [compound 109] | 7.51 |
| COC(=O)CN1CCC(c2ccc(Nc3nc(-c4cncc(OC)n4)cc4cc[nH]c(=O)c34)cc2C)CC1 [compound 157] | 7.00 |
| COC(=O)C(C)N1CCC(c2ccc(Nc3nc(-c4cncc(OC)n4)cc4cc[nH]c(=O)c34)cc2C)CC1 (stereo not shown) [compound 116] | 6.74 |

| Compound | pIC50 |
| --- | --- |
| CCC(C(=O)OC)N1CCC(c2ccc(Nc3nc(-c4cncc(OC)n4)cc4cc[nH]c(=O)c34)cc2C)CC1 (stereo not shown) [compound 118] | 6.46 |
| Cc1ccnc(Nc2cc3ccn(C)c(=O)c3c(N[C@@H](C)CO)n2)c1 [compound 323] | 7.43 |
| Cc1ccnc(Nc2cc3cc[nH]c(=O)c3c(Nc3ccc(C4CCN(C5CC5)CC4)c(C)c3)n2)c1 [compound 252] | 7.49 |
| CC(C)Nc1nc(Nc2cnccn2)cc2cc[nH]c(=O)c12 [compound 462] | 7.52 |
| COc1cncc(-c2cc3cc[nH]c(=O)c3c(Nc3ccc(C4CCN(C(=O)N(C)C)CC4)c(C)c3)n2)n1 [compound 177] | 6.30 |
| Cn1ccc2cc(Nc3cnccn3)nc(NC(C)(C)CO)c2c1=O [compound 472] | 6.81 |
| COC[C@H](C)Nc1nc(-c2cnc(N)nc2)cc2cc[nH]c(=O)c12 [compound 448] | 6.90 |
| CC(C)Nc1nc(Nc2cnccn2)cc2ccn(C)c(=O)c12 [compound 347] | 7.24 |
| COc1cncc(-c2cc3cc[nH]c(=O)c3c(Nc3ccc(C4CCN(C(=O)N5CCNC5=O)CC4)c(C)c3)n2)n1 [compound 114] | 6.76 |
| Cc1ccnc(Nc2cc3cc[nH]c(=O)c3c(NC[C@H](C)O)n2)c1 [compound 501] | 7.42 |
| COc1cncc(-c2cc3cc[nH]c(=O)c3c(Nc3ccc(C4CCN(CC(N)=O)CC4)c(C)c3)n2)n1 [compound 134] | 7.40 |
| CCn1ccc2cc(Nc3cc(C)ccn3)nc(N[C@H]3CCC[C@H]3O)c2c1=O [compound 420] | 7.96 |
| COc1nc(-c2cc3cc[nH]c(=O)c3c(Nc3ccc(C4CCN(CCC#N)CC4)c(C)c3)n2)cnc1N [compound 169] | 7.54 |
| Cc1ccnc(Nc2cc3ccn(C)c(=O)c3c(NC(C)(C)CO)n2)c1 [compound 486] | 7.35 |
| COc1cncc(-c2cc3cc[nH]c(=O)c3c(Nc3ccc(CCN4CCC(F)(F)CC4)cc3)n2)n1 [compound 44] | 6.20 |
| Cc1cc(Nc2nc(-c3ccnc(N)n3)cc3cc[nH]c(=O)c23)ccc1C1CCN(CCC#N)CC1 [compound 67] | 6.48 |
| CC(C)C(C)Nc1nc(Nc2ccccn2)cc2cc[nH]c(=O)c12 (stereo not shown) [compound 278] | 5.66 |
| CCOC(=O)/C=C/c1cc2cc[nH]c(=O)c2c(Nc2ccc(N3CCOCC3)cc2)n1 [compound 242] | 6.48 |

Further lines, results first:

| pIC50 | Compound |
| --- | --- |
| 7.07 | Cc1ccnc(Nc2cc3ccn(C)c(=O)c3c(NC[C@@H](C)O)n2)c1 [compound 511] |
| 7.80 | CCN1CCN(CCc2ccc(Nc3nc(Nc4ccc(C(=O)O)cn4)cc4cc[nH]c(=O)c34)cc2)CC1 [compound 581] |
| 7.07 | Cc1ccnc(Nc2cc3cc[nH]c(=O)c3c(NCC3CCNCC3)n2)c1 [compound 554] |
| 5.41 | Cn1ccc2cc(Nc3ccc(C#N)cn3)nc(N)c2c1=O [compound 573] |
| 6.10 | CCNc1nc(Nc2cc(C)ccn2)cc2cc[nH]c(=O)c12 [compound 566] |
| 6.69 | Cc1ccnc(Nc2cc3cc[nH]c(=O)c3c(NC3CC3)n2)c1 [compound 535] |
| 5.46 | CCN1CCC[C@H]1CNc1nc(Nc2cc(C)ccn2)cc2cc[nH]c(=O)c12 [compound 590] |
| 6.44 | Cc1cc(Nc2nc(Nc3ccc(C(N)=O)cn3)cc3cc[nH]c(=O)c23)ccc1N1CCO[C@H](C)C1 [compound 538] |
| 7.32 | Cc1ccnc(Nc2cc3cc[nH]c(=O)c3c(NCCCO)n2)c1 [compound 504] |

— patent US20110053897A1 (IRM LLC, priority 2009, published 2011)
